Experimental data taken from patent US12077537B2 (Gilead Sciences, Inc., priority 2020, dated 2024).

Each compound was assayed on HIV-IIIb (assay: Antiviral assay in MT4 cells). Details: Human immunodeficiency virus 1, MT4, 120 h; MT-4 cells mixed with HIV-IIIb at m.o.i. 0.003; 5 days at 37° C.; CellTiter-Glo luminescence; 50% decrease in signal, a measure of HIV-1 replication.
Format: cell-based
Outline: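 MT-4 cells were infected with HIV-IIIb at m.o.i. 0.003 for 1 hour, then added to 3-fold serially diluted compound (10 concentrations, quadruplicate) in medium with 10% FBS. After 5 days at 37° C, cell viability was read by CellTiter-Glo chemiluminescence.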

Point of comparison: `COCc1nc2nc([C@H](Cc3cc(F)cc(F)c3)NC(=O)Cn3nc(C(F)(F)F)c4c3C(F)(F)[C@@H]3C[C@H]43)c(-c3ccc(Cl)c4c(NS(C)(=O)=O)nn(C)c34)cc2[nH]1` [Example 101, N—((S)-1-(6-(4-chloro-1-methyl-3-(methylsulfonamido)-1H-indazol-7-yl)-2-(methoxymethyl)-1H-imidazo[4,5-b]pyridin-5-yl)-2-(3,5-difluorophenyl)ethyl)-2-((3bS,4aR)-5,5-difluoro-3-(trifluoromethyl)-3b,4,4a,5-tetrahydro-1H-cyclopropa[3,4]cyclopenta[1,2-c]pyrazol-1-yl)acetamide], EC50 2.1 nM. Against it:
- Cn1nc(NS(C)(=O)=O)c2c(Cl)ccc(-c3cc4[nH]c(C5CC5)nc4nc3[C@H](Cc3cc(F)cc(F)c3)NC(=O)Cn3nc(C(F)F)c4c3C(F)(F)[C@@H]3C[C@H]43)c21 [Example 97, N—((S)-1-(6-(4-chloro-1-methyl-3-(methylsulfonamido)-1H-indazol-7-yl)-2-cyclopropyl-1H-imidazo[4,5-b]pyridin-5-yl)-2-(3,5-difluorophenyl)ethyl)-2-((3bS,4aR)-3-(difluoromethyl)-5,5-difluoro-3b,4,4a,5-tetrahydro-1H-cyclopropa[3,4]cyclopenta[1,2-c]pyrazol-1-yl)acetamide] — within 1.5-fold, 3.1 nM
- Cn1cc(-c2nc3nc([C@H](Cc4cc(F)cc(F)c4)NC(=O)Cn4nc(C(F)F)c5c4C(F)(F)[C@@H]4C[C@H]54)c(-c4ccc(Cl)c5c(NS(C)(=O)=O)nn(C)c45)cc3[nH]2)cn1 [Example 98, N—((S)-1-(6-(4-chloro-1-methyl-3-(methylsulfonamido)-1H-indazol-7-yl)-2-(1-methyl-1H-pyrazol-4-yl)-1H-imidazo[4,5-b]pyridin-5-yl)-2-(3,5-difluorophenyl)ethyl)-2-((3bS,4aR)-3-(difluoromethyl)-5,5-difluoro-3b,4,4a,5-tetrahydro-1H-cyclopropa[3,4]cyclopenta[1,2-c]pyrazol-1-yl)acetamide] — within 1.5-fold, 3 nM
- Cc1nc2nc([C@H](Cc3cc(F)cc(F)c3)NC(=O)Cn3nc(C(F)F)c4c3C(F)(F)[C@@H]3C[C@H]43)c(-c3ccc(Cl)c4c(NS(C)(=O)=O)nn(C)c34)cc2[nH]1 [Example 99, N—((S)-1-(6-(4-chloro-1-methyl-3-(methylsulfonamido)-1H-indazol-7-yl)-2-methyl-1H-imidazo[4,5-b]pyridin-5-yl)-2-(3,5-difluorophenyl)ethyl)-2-((3bS,4aR)-3-(difluoromethyl)-5,5-difluoro-3b,4,4a,5-tetrahydro-1H-cyclopropa[3,4]cyclopenta[1,2-c]pyrazol-1-yl)acetamide] — within 1.5-fold, 1.6 nM
- Cc1nc2nc([C@H](Cc3cc(F)cc(F)c3)NC(=O)Cn3nc(C(F)(F)F)c4c3C(F)(F)[C@@H]3C[C@H]43)c(-c3ccc(Cl)c4c(NS(C)(=O)=O)nn(C)c34)cc2[nH]1 [Example 100, N—((S)-1-(6-(4-chloro-1-methyl-3-(methylsulfonamido)-1H-indazol-7-yl)-2-methyl-1H-imidazo[4,5-b]pyridin-5-yl)-2-(3,5-difluorophenyl)ethyl)-2-((3bS,4aR)-5,5-difluoro-3-(trifluoromethyl)-3b,4,4a,5-tetrahydro-1H-cyclopropa[3,4]cyclopenta[1,2-c]pyrazol-1-yl)acetamide] — within 1.5-fold, 2.4 nM
- COCc1nc2nc([C@H](Cc3cc(F)cc(F)c3)NC(=O)Cn3nc(C(F)F)c4c3C(F)(F)[C@@H]3C[C@H]43)c(-c3ccc(Cl)c4c(NS(C)(=O)=O)nn(C)c34)cc2[nH]1 [Example 102, N—((S)-1-(6-(4-chloro-1-methyl-3-(methylsulfonamido)-1H-indazol-7-yl)-2-(methoxymethyl)-1H-imidazo[4,5-b]pyridin-5-yl)-2-(3,5-difluorophenyl)ethyl)-2-((3bS,4aR)-3-(difluoromethyl)-5,5-difluoro-3b,4,4a,5-tetrahydro-1H-cyclopropa[3,4]cyclopenta[1,2-c]pyrazol-1-yl)acetamide] — within 1.5-fold, 1.5 nM
- COCc1nc2nc([C@H](Cc3cc(F)cc(F)c3)NC(=O)Cn3nc(C(F)F)c4c3C(F)(F)[C@@H]3C[C@H]43)c(-c3ccc(Cl)c4c(N)nn(C)c34)cc2[nH]1 [Example 103, N—((S)-1-(6-(3-amino-4-chloro-1-methyl-1H-indazol-7-yl)-2-(methoxymethyl)-1H-imidazo[4,5-b]pyridin-5-yl)-2-(3,5-difluorophenyl)ethyl)-2-((3bS,4aR)-3-(difluoromethyl)-5,5-difluoro-3b,4,4a,5-tetrahydro-1H-cyclopropa[3,4]cyclopenta[1,2-c]pyrazol-1-yl)acetamide] — 2.8-fold higher, 5.9 nM
- CC(C)c1nc2nc([C@H](Cc3cc(F)cc(F)c3)NC(=O)Cn3nc(C(F)F)c4c3C(F)(F)[C@@H]3C[C@H]43)c(-c3ccc(Cl)c4c(NS(C)(=O)=O)nn(C)c34)cc2[nH]1 [Example 104, N—((S)-1-(6-(4-chloro-1-methyl-3-(methylsulfonamido)-1H-indazol-7-yl)-2-isopropyl-TH-imidazo[4,5-b]pyridin-5-yl)-2-(3,5-difluorophenyl)ethyl)-2-((3bS,4aR)-3-(difluoromethyl)-5,5-difluoro-3b,4,4a,5-tetrahydro-TH-cyclopropa[3,4]cyclopenta[1,2-c]pyrazol-1-yl)acetamide] — 2.1-fold higher, 4.4 nM
- Cn1nc(NS(C)(=O)=O)c2c(Cl)ccc(-c3cc4[nH]c(C(C)(C)O)nc4nc3[C@H](Cc3cc(F)cc(F)c3)NC(=O)Cn3nc(C(F)F)c4c3C(F)(F)[C@@H]3C[C@H]43)c21 [Example 105, N—((S)-1-(6-(4-chloro-1-methyl-3-(methylsulfonamido)-1H-indazol-7-yl)-2-(2-hydroxypropan-2-yl)-1H-imidazo[4,5-b]pyridin-5-yl)-2-(3,5-difluorophenyl)ethyl)-2-((3bS,4aR)-3-(difluoromethyl)-5,5-difluoro-3b,4,4a,5-tetrahydro-1H-cyclopropa[3,4]cyclopenta[1,2-c]pyrazol-1-yl)acetamide] — 2.3-fold higher, 4.9 nM
- Cn1nc(NS(C)(=O)=O)c2c(Cl)ccc(-c3cc4[nH]c(C(C)(C)O)nc4nc3[C@H](Cc3cc(F)cc(F)c3)NC(=O)Cn3nc(C(F)(F)F)c4c3C(F)(F)[C@@H]3C[C@H]43)c21 [Example 106, N—((S)-1-(6-(4-chloro-1-methyl-3-(methylsulfonamido)-1H-indazol-7-yl)-2-(2-hydroxypropan-2-yl)-1H-imidazo[4,5-b]pyridin-5-yl)-2-(3,5-difluorophenyl)ethyl)-2-((3bS,4aR)-5,5-difluoro-3-(trifluoromethyl)-3b,4,4a,5-tetrahydro-1H-cyclopropa[3,4]cyclopenta[1,2-c]pyrazol-1-yl)acetamide] — 3-fold higher, 6.4 nM
- Cn1nc(NS(C)(=O)=O)c2c(Cl)ccc(-c3cc4c(nc3[C@H](Cc3cc(F)cc(F)c3)NC(=O)Cn3nc(C(F)(F)F)c5c3C(F)(F)[C@@H]3C[C@H]53)NCC(=O)N4)c21 [Example 107, N—((S)-1-(7-(4-chloro-1-methyl-3-(methylsulfonamido)-1H-indazol-7-yl)-2-oxo-1,2,3,4-tetrahydropyrido[2,3-b]pyrazin-6-yl)-2-(3,5-difluorophenyl)ethyl)-2-((3bS,4aR)-5,5-difluoro-3-(trifluoromethyl)-3b,4,4a,5-tetrahydro-1H-cyclopropa[3,4]cyclopenta[1,2-c]pyrazol-1-yl)acetamide] — 20-fold higher, 42.2 nM
- Cn1nc(NS(C)(=O)=O)c2c(Cl)ccc(-c3cc4c(nc3[C@H](Cc3cc(F)cc(F)c3)NC(=O)Cn3nc(C(F)F)c5c3C(F)(F)[C@@H]3C[C@H]53)NCC(=O)N4)c21 [Example 108, N—((S)-1-(7-(4-chloro-1-methyl-3-(methylsulfonamido)-1H-indazol-7-yl)-2-oxo-1,2,3,4-tetrahydropyrido[2,3-b]pyrazin-6-yl)-2-(3,5-difluorophenyl)ethyl)-2-((3bS,4aR)-3-(difluoromethyl)-5,5-difluoro-3b,4,4a,5-tetrahydro-1H-cyclopropa[3,4]cyclopenta[1,2-c]pyrazol-1-yl)acetamide] — 16-fold higher, 34.5 nM
- Cn1nc(NS(C)(=O)=O)c2c(Cl)ccc(-c3cc4[nH]c(=O)[nH]c4nc3[C@H](Cc3cc(F)cc(F)c3)NC(=O)Cn3nc(C(F)F)c4c3C(F)(F)[C@@H]3C[C@H]43)c21 [Example 109, N—((S)-1-(6-(4-chloro-1-methyl-3-(methylsulfonamido)-1H-indazol-7-yl)-2-oxo-2,3-dihydro-1H-imidazo[4,5-b]pyridin-5-yl)-2-(3,5-difluorophenyl)ethyl)-2-((3bS,4aR)-3-(difluoromethyl)-5,5-difluoro-3b,4,4a,5-tetrahydro-1H-cyclopropa[3,4]cyclopenta[1,2-c]pyrazol-1-yl)acetamide] — 18-fold higher, 36.8 nM
- Cn1nc(NS(C)(=O)=O)c2c(Cl)ccc(-c3cc4nc(C5CC5)oc4nc3[C@H](Cc3cc(F)cc(F)c3)NC(=O)Cn3nc(C(F)F)c4c3C(F)(F)[C@@H]3C[C@H]43)c21 [Example 110, N—((S)-1-(6-(4-chloro-1-methyl-3-(methylsulfonamido)-1H-indazol-7-yl)-2-cyclopropyloxazolo[5,4-b]pyridin-5-yl)-2-(3,5-difluorophenyl)ethyl)-2-((3bS,4aR)-3-(difluoromethyl)-5,5-difluoro-3b,4,4a,5-tetrahydro-1H-cyclopropa[3,4]cyclopenta[1,2-c]pyrazol-1-yl)acetamide] — 5.7-fold higher, 11.9 nM
- CC1(O)CN(c2nc3cc(-c4ccc(F)c(C(N)=O)c4)c([C@H](Cc4cc(F)cc(F)c4)NC(=O)Cn4nc(C(F)(F)F)c5c4C(F)(F)[C@@H]4C[C@H]54)nc3o2)C1 [Example 111, 5-(5-((S)-1-(2-((3bS,4aR)-5,5-difluoro-3-(trifluoromethyl)-3b,4,4a,5-tetrahydro-1H-cyclopropa[3,4]cyclopenta[1,2-c]pyrazol-1-yl)acetamido)-2-(3,5-difluorophenyl)ethyl)-2-(3-hydroxy-3-methylazetidin-1-yl)oxazolo[5,4-b]pyridin-6-yl)-2-fluorobenzamide] — 74-fold higher, 156 nM
